Data as given in patent US11572369B2, “Bicyclic pyridine compositions and methods of using the same for cancer therapy” (UNIVERSITY OF SOUTH CAROLINA, priority 2019, dated 2023).

Assays:
Mouse PK, intravenous = format: in vivo; conditions: female FVB mice, i.v. 0.5 mg/kg, mixture
Experimental: Pharmacokinetics (PK) Assay. To measure mouse pharmacokinetics (PK), thienopyridine derivatives were dissolved in 5% dextrose and administered to female FVB mice at different dosing conditions; blood samples were collected at different time points and compound concentrations in the serum were measured by LC/MS/MS.

Mouse PK, oral 1 mg/kg = format: in vivo; conditions: female, FVB, serum, mice, oral (gavage) 1 mg/kg
[1] = test system: PSA expression in CRPC cell line C4-2; assay: PSA expression in C4-2 cell culture supernatant; format: cell-based; conditions: C4-2, 96 h, read-out: IC50, suppression of PSA expression
Description: CDK8/19 inhibition decreases the expression of certain androgen-receptor (AR) inducible genes including PSA, the most common marker of prostate cancer, and the growth of castration-refractory prostate cancers (CRPC).

MYC-CaP-CR tumors = assay: MYC-CaP-CR subcutaneous tumors in intact FVB male mice; format: in vivo, mouse; conditions: intact (uncastrated) FVB male mice
[2] = test system: MDA-MB-468 triple-negative breast cancer (TNBC) cells; assay: MDA-MB-468 long-term treatment in vitro; format: cell-based, Human
[3] = test system: alkaline phosphatase (ALPase) in bone marrow stromal cell line ST2; conditions: concentration that enhances ALPase activity to 200% of control; ST2 cells; Saito (2013); cited from earlier work

Structure (SMILES): CN(C)C(=O)c1ccc(N2CCCN(c3ccnc4sc(C(N)=O)c(N)c34)CC2)cc1 [15u, 3-amino-4-(4-(4-(dimethylcarbamoyl)phenyl)-1,4-diazepan-1-yl)thieno[2,3-b]pyridine-2-carboxamide]
- Elimination rate (Mouse PK, intravenous): 4.03 h⁻¹
- AUC (Mouse PK, intravenous; mouse, serum, iv): 92.1 ng·h/mL
- C0 (Mouse PK, intravenous; mouse, serum, iv): 328 ng/mL
- Vd (Mouse PK, intravenous; mouse, serum, iv): 1.52 L/kg
- half-life (Mouse PK, intravenous; mouse, serum, iv): 10.2 min
- AUC (Mouse PK, oral 1 mg/kg): 79.3 ng·h/mL
- half-life (Mouse PK, oral 1 mg/kg): 78 min
- bioavailability (Mouse PK, oral 1 mg/kg; read-out: Bioavailability (F %)): 43%
- IC50 [1]: 27.6 nM
- tumor volume and weight (MYC-CaP-CR tumors): modest effect
- response upon long-term treatment in vitro [2]: responsive
- ALP activity Assay EC200 [3]: 31.9 nM
